Data from article PMC4912077 (PLoS ONE, 2016).

Key:
[1] = test system: PCP site within the NMDAR channel; conditions: [3H]-(+)-MK-801, rat forebrain, cited from earlier work
Sprague–Dawley rats [2] = conditions: rat; cited from earlier work
[3] = test system: PCP site within the NMDAR channel; test: NMDAR binding, [3H]-MK-801 displacement in rat forebrain homogenate; conditions: lower affinity;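 note: IC50 by nonlinear regression of percent specific binding versus log concentration, Ki from IC50 via Cheng-Prusoff, raw counts in CPM, duplicates repeated at least three times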
Method: The reaction was terminated by vacuum filtration using a 24 well cell harvester (Brandel, Gaithersburg, MD) over presoaked GF/B glass fiber filters (Brandel, Gaithersburg, MD). Filters were washed with room temperature assay buffer (3 x 5 mL). […] IC50 values were determined in Graphpad Prism 5.0 using non-linear regression with log-concentration plotted against percent specific binding. […] Ki values were calculated using the equation of Cheng and Prusoff [24]. […] Protein concentration was determined via the Bradford method using Coomassie protein assay reagent (Sigma, USA) [25] with rat albumin (Sigma, USA) as standard. Experiments were performed in duplicate and repeated a minimum of three times.

Sprague–Dawley rats [4] = test: Pre-pulse inhibition (PPI) of acoustic startle in rats; type: in vivo, rat; conditions: higher potency
Method: Male Sprague–Dawley rats from Harlan Industries (Indianapolis, IN, USA; initial weight 250–275 g) were housed in pairs under a 12-h reverse light/dark cycle (lights off at 0700 h). Use of a reversed light/dark cycle allows behavioral testing to be conducted during the awake phase of the light/dark cycle. Food and water were available ad libitum. Animals were acclimatized for approximately 1 wk after arrival prior to behavioral testing and maintained in Association for Assessment and Accreditation of Laboratory Animal Care (AAALAC)-approved facilities that meet all federal and state guidelines. Procedures were approved by the University of California San Diego institutional animal care and use committee. Principles of laboratory animal care were followed.
DPH hydrochloride and 2-MXP hydrochloride were dissolved in water containing 5% Tween-80 and administered subcutaneously, 10-min prior to the start of the startle test session. The injection volume was 1 ml/kg.
Eight startle chambers (SR-LAB system, San Diego Instruments, San Diego, CA, USA) were used to measure startle reactivity in rats. The startle test chambers were sound-attenuated, lighted, and ventilated enclosures containing a clear nonrestrictive cylindrical Plexiglas stabilimeter, 8.2 cm in diameter. A high-frequency loudspeaker mounted 24 cm above the Plexiglas cylinder produced all acoustic stimuli. The peak and average amplitudes of the startle response were detected by a piezoelectric accelerometer. At the onset of the startling stimulus, 100 1-ms readings were recorded, and the average amplitude was used to determine the magnitude of the startle response (measured in arbitrary units).
Acoustic startle test sessions consisted of startle trials (pulse-alone) and prepulse trials (prepulse + pulse). The pulse-alone trial consisted of a 40-ms 120-dB pulse of broadband white noise. Prepulse + pulse trials consisted of a 20-ms acoustic prepulse, an 80-ms delay, and then a 40-ms 120-dB startle pulse (100-ms onset–onset). There was an average of 15 s (range = 6–22 s) between trials. During each inter-trial interval, the movements of the animals were recorded once to measure response when no stimulus was present (data not shown). Each startle session began with a 5 min acclimation period to a 65-dB broadband noise that was present continuously throughout the session. One week after arrival, animals were tested in a brief baseline startle/PPI session to create treatment groups matched for levels of startle and PPI. The startle test session contained 12 pulse-alone trials and 36 prepulse + pulse trials (12 prepulses each of 68-, 71-, and 77-dB [equivalent to 3-, 6-, and 12-dB above background]) presented in a pseudo-randomized order. Six pulse-alone trials were presented at the beginning and the end of the test session but were not used in the calculation of PPI values. Raw data for all PPI experiments are provided as supporting information (S5 File).
The amount of PPI was calculated as a percentage score for each prepulse + pulse trial type: %PPI = 100−{[(startle response for prepulse + pulse trial)/(startle response for pulse-alone trial)] × 100}. Startle magnitude was calculated as the average response to all of the pulse-alone trials. PPI data were analyzed with two-factor analysis of variance (ANOVA) with treatment as the between-subjects factor and trial type (prepulse intensity) as a repeated measure. For experiments in which there was no significant interaction between drug and prepulse intensity, PPI data were collapsed across prepulse intensity and average PPI was used as the main dependent measure. ED50 values were calculated using nonlinear regression. Startle magnitude data were analyzed with one-factor ANOVA. Post-hoc analyses were performed using Tukey’s studentized range method. The alpha level was set at 0.05.

Question: Which IC50 [1] does the source give for c1ccc(C2(N3CCCCC3)CCCCC2)cc1 [PCP, Phencyclidine] here?
Answer: Its IC50 is 0.091 ± 0.0013 µM.

Question: And the Ki ([1]; read-out: Ki ± SEM)?
Answer: Its Ki is 0.0579 ± 0.0008 µM.

Question: What about the “ED50 for disruption of PPI” value (Sprague–Dawley rats [2]) of the same molecule?
Answer: Its value is 3.15 µmol/kg.

Question: And the “[3H]MK-801 displacement affinity relative to DPH” value [3]?
Answer: The value was 3 fold.

Question: And the “potency to alter PPI relative to DPH” value (Sprague–Dawley rats [4])?
Answer: The value was 10 fold.
